In data set [1] the test system is primary NSCLC CSC-derived xenograft tumors. The data set is described as follows: CSC-xenograft tumor growth, NSCLC model in NOD/SCID mice. The class given is in vivo, mouse. The settings on record: 5 or 10 mg daily s.c., 91 days. The method, then:
(§1) CSC were FACS-enriched from primary tumor-derived NSCLC and CRC cell line cultures on the basis ALDH activity as determined by the Aldefluor assay. 10^4 cells/mouse were transplanted s.c. in NOD/SCID mice together with Matrigel. A Loading dose of 5 μg/mL Kineret (recombinant […], Amgen) was applied to the Matrigel and subsequent daily treatment s.c. with either 5 or 10 mg Kineret was performed beginning on day 1 post transplantation. Tumor volumes were monitored weekly and three mice from each group were sacrificed at day 76 for the CRC model (A.) and at day 91 for the NSCLC model (B.) for further analysis. For the remaining animals Kineret treatment was stopped and tumor progression was continually monitored. When tumors reached >2000 mm^3 mice were sacrificed. At time of sacrifice serum was collected along for cytokine analysis. A. Tumor growth curves in the CRC tumor model study and B. growth curves in the NSLCL model study. Curves represent mean tumor volume in mm3 from 10 mice/group; error bars are SEM The data shown for each model is representative of n=2 similar experiments.
(§2) Human cell cultures derived from primary tumors obtained from a CRC (FIG. 12A) and a NSCLC (FIG. 12B) patient were sorted for the Aldeflour-positive population using fluorescence activated cell sorting (FACS). […]
(§3) Tumor volume was monitored weekly for 76 days in the CRC model and for 91 days in the NSCLC model.

For data set [2] the following is noted: in vivo, sc; cited from earlier work.
The test system of another data set is hVEGF. The data set is described as follows: Serum hVEGF ELISA in NOD/SCID mice with CSC-xenograft tumors. The note with it: CRC day 76 and NSCLC day 91, vs vehicle. It counts as in vivo, mouse. Here is the method:
(§4) This analysis was performed on serum collected from the tumor model studies described in FIG. 18. Serum analysis was performed using high-sensitivity ELISA assay kits obtained from R&D systems. A.C. Serum from 3 mice at day 76 (CRC) (blue) and at day 91 (NSCLC) (red) was analyzed for hIL8 and hVEGF serum levels. Results are shown as bar graphs representing the mean cytokine concentration in pg/mL+/−SD from n=3 mice/group.
(§5) Three mice from each study group were sacrificed at day 76 (CRC) or day 91 (NSCLC). The tumors were excised, dissociated into single cells, and viably cryopreserved. Serum was also collected for cytokine detection. For the remaining mice Kineret treatment was stopped and the mice were further monitored for tumor growth. When tumors reached ethical tumor-burden limits the mice were sacrificed and tumor cells and serum were collected. […] From all sacrificed mice we also collected and cryopreserved bone marrow cells from the femur and tibial bones for possible analyses.
A general note: An ELISA detects its analyte on a solid surface through an enzyme-linked reagent.

Another data set concerns hIL8. Nature of the data set: Serum hIL8 ELISA in NOD/SCID mice with CSC-xenograft tumors. It counts as in vivo, mouse. The settings on record: CRC day 76 and NSCLC day 91, vs vehicle. Here is the method: as §4, §5
Data set [3] is described as follows: Tolerability in NOD/SCID mice of the xenograft studies. It counts as in vivo. The note with it: 5 and 10 mg daily s.c.
Excerpt: Human cell cultures derived from primary tumors obtained from a CRC (FIG. 12A) and a NSCLC (FIG. 12B) patient were sorted for the Aldeflour-positive population using fluorescence activated cell sorting (FACS). Aldefluor is a marker of high aldehyde-dehydrogenase activity, which is associated with both normal stem cell and CSC phenotypes. The sorted aldefluor-positive (AF+) cells were suspended in Matrigel and injected subcutaneously at a very low cell number (2×10^4 cells/mouse) into NOD/SCID immune-deficient mice. The matrigel suspensions contained a Kineret loading dose of 5 μg/mL which corresponds to reported serum levels of Kineret after daily s.c. dosing. Starting 1 day after inoculation of the AF+ cells, mice were treated daily with 5 mg or 10 mg of Kineret (purchased from Biovitrum) or the drug vehicle. The administration route was s.c. as is standard for Kineret in the clinic.
as §3

Data set [4] deals with primary CRC CSC-derived xenograft tumors. Nature of the data set: CSC-xenograft tumor growth, CRC model in NOD/SCID mice. The class given is in vivo, mouse. The note with it: 5 or 10 mg daily s.c., 76 days. The method, then:
as §1, §2, §3

Turning to “Kineret: human IL1R-antagonist (IL1RA) marketed under the trade name Kineret, Amgen; approved for rheumatoid arthritis”, the “inhibition of tumor growth” value is “response was only achieved with the higher dose of 10 mg/kg” in data set [1]; “strong inhibition at both the 5 and 10 mg doses” in data set [4]. For the same substance, the “reported serum levels after daily s.c. dosing” value in data set [2] was 5 µg/mL. The “hVEGF levels in mouse serum” value in the data set on hVEGF was “did not alter”. In addition, the “hIL-8 levels in mouse serum” value in the data set on hIL8 is given as “reduced to undetectable levels”. Also, the tolerability entry in data set [3] was “well tolerated”.

The record behind these values is US20140308294A1, “Anti-IL-1R1 Inhibitors For Use in Cancer” (MERCK PATENT GMBH, priority 2011, published 2014).
